In patent US7803930B2, “Antisense modulation of apolipoprotein B-expression” (Isis Pharmaceuticals, Inc., priority 2002, dated 2010):
In the oligonucleotide strings, read from the 5' end, every base follows the letter of its sugar. An asterisk marks phosphorothioate; unmarked linkages are phosphodiester. Other units and linkages are bracketed, terminal groups are in braces. A string of capitals states the bases alone. e = 2'-O-(2-methoxyethyl) (MOE); [5mC] = 5-methylcytosine; d = 2'-deoxy (DNA)

System: human apolipoprotein B mRNA
Assay: Inhibition of human apolipoprotein B mRNA levels in HepG2 cells, quantitative real-time PCR
Format: cell-based
Settings: for Percent Inhibition 50 nM / Percent Inhibition 150 nM / Percent Inhibition 250 nM: Table 2; for % INHIB (inhibition of human apolipoprotein B mRNA levels): HepG2 cells treated with 150 nM of compound, quantitative real-time PCR; for % Change in apolipoprotein B mRNA expression: 24 hour (Table 40)
How it was run: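 Apolipoprotein B transcript was quantified by one-step TaqMan RT-PCR, normalized to GAPDH or RiboGreen RNA, and expressed as percent inhibition against an untreated-sample standard curve. HepG2 cells were harvested 16-24 h after oligonucleotide exposure, which was delivered with 3.75 μg/mL Lipofectin over 4-7 h at 80% confluency.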

[1] = Table 1, HepG2 cells, 150 nM, averages from two experiments
[2] = HepG2 cells, human apolipoprotein B mRNA, oligonucleotides targeting genomic sequence SEQ ID NO 334, averages from two experiments
[3] = Table 11 gene walk, HepG2 cells, 50 nM, averages from two experiments
[4] = Table 11 gene walk, HepG2 cells, 150 nM, averages from two experiments

## 147820 (antisense eG*eA*eA*e[5mC]*eA*d[5mC]*dA*dT*dA*dG*d[5mC]*d[5mC]*dG*dA*dA*eT*eG*e[5mC]*e[5mC]*eG) [compound 147820]
[1]
  % INHIB: 100%
HepG2 cells, 50 nM
  Percent Inhibition 50 nM: 10%
HepG2 cells, 150 nM
  Percent Inhibition 150 nM: 0%
HepG2 cells
  Percent Inhibition 250 nM: 73%

## 301204 (antisense eA*eG*e[5mC]*eT*e[5mC]*d[5mC]*dA*dT*dA*d[5mC]*dT*dG*dA*dA*dG*eT*e[5mC]*e[5mC]*eT*eT) [compound 301204]
[2]
  % INHIB: 37%

## 308618 (eA*eG*eG*e[5mC]*eT*d[5mC]*d[5mC]*dT*dT*dT*dT*dA*dG*dG*dT*eT*eA*e[5mC]*e[5mC]*eA; antisense) [compound 308618]
[3]
  % INHIB 50 nm: 61%
[4]
  % INHIB 150 nm: 77%

## 308619 (eG*eT*eA*eG*eG*d[5mC]*dT*d[5mC]*d[5mC]*dT*dT*dT*dT*dA*dG*eG*eT*eT*eA*e[5mC]; antisense) [compound 308619]
[3]
  % INHIB 50 nm: 69%
[4]
  % INHIB 150 nm: 74%

## ISIS 332770: ISIS 301012 derivative with a single thymidine to cytosine substitution in the center of the oligonucleotide (GCCTCAGTCTTCTTCGCACC; sugars from the 5' end e5 d10 e5, all phosphorothioate, methylation of C not given here)
HepG2 cells, 50 or 150 nM, 24 hours
  potency relative to ISIS 301012 (fold less potent): 3 fold

## 271007 (antisense e[5mC]*eT*eG*eA*eG*d[5mC]*dA*dG*d[5mC]*dT*dT*dG*dA*d[5mC]*dT*eG*eG*eT*e[5mC]*eT) [compound 271007]
Averages from two experiments
  % INHIB (inhibition of human apolipoprotein B mRNA levels): 26%

## 271037 (eA*eA*eG*eA*e[5mC]*d[5mC]*d[5mC]*dA*dG*dA*dA*dT*dG*dA*dA*eT*e[5mC]*e[5mC]*eG*eG; antisense) [compound 271037]
Averages from two experiments
  % INHIB (inhibition of human apolipoprotein B mRNA levels): 23%

## 281600 (antisense eG*eA*eT*e[5mC]*eA*dT*d[5mC]*dA*dG*dT*dG*dA*dT*dG*dG*e[5mC]*eT*eT*eT*eG) [compound 281600]
Averages from two experiments
  % INHIB (inhibition of human apolipoprotein B mRNA levels): 52%

## 147833 (antisense eA*eT*eG*eA*eT*dA*d[5mC]*dA*d[5mC]*dA*dA*dT*dA*dA*dA*eG*eA*e[5mC]*eT*e[5mC]) [compound 147833]
[1]
  % INHIB: 25%

## 281644 (e[5mC]*eT*eG*eT*e[5mC]*dT*d[5mC]*d[5mC]*dT*dA*d[5mC]*d[5mC]*dA*dA*dT*eG*e[5mC]*eT*eG*eG; antisense) [compound 281644]
Averages from two experiments
  % INHIB (inhibition of human apolipoprotein B mRNA levels): 26%

## 270999 (antisense eG*eT*eT*eG*eA*d[5mC]*d[5mC]*dG*d[5mC]*dG*dT*dG*dG*d[5mC]*dT*e[5mC]*eA*eG*e[5mC]*eG) [compound 270999]
Averages from two experiments
  % INHIB (inhibition of human apolipoprotein B mRNA levels): 76%

## 271042 (eA*eG*eT*eT*eT*d[5mC]*d[5mC]*dT*d[5mC]*dA*dT*d[5mC]*dA*dG*dA*eT*eT*e[5mC]*e[5mC]*e[5mC]; antisense) [compound 271042]
Averages from two experiments
  % INHIB (inhibition of human apolipoprotein B mRNA levels): 57%

## 281601 (antisense eA*eG*e[5mC]*e[5mC]*eT*dG*dG*dA*dT*dG*dG*d[5mC]*dA*dG*d[5mC]*eT*eT*eT*e[5mC]*eT) [compound 281601]
Averages from two experiments
  % INHIB (inhibition of human apolipoprotein B mRNA levels): 83%

## 308653 (antisense GCCTCAGTCTGCTTCGCACC; 7-10-3 2'-MOE gapmer, phosphorothioate, chemistry not fully specified) [compound 308653]
HepG2 cells, 50 nm oligonucleotide, variable deoxy gap position
  % INHIB 50 nm: 73%
HepG2 cells, 150 nm oligonucleotide, variable deoxy gap position
  % INHIB 150 nm: 89%

## 332774 (antisense GCCTCATTATTATTAGCACC; sugars from the 5' end e5 d10 e5, all phosphorothioate, methylation of C not given here) [compound 332774]
HepG2 cells, 50 nM
  % Change in apolipoprotein B mRNA expression: +62%
HepG2 cells, 150 nM
  % Change in apolipoprotein B mRNA expression: +66%

## 301094 (antisense eA*e[5mC]*eT*e[5mC]*eA*dA*dT*dA*dT*dA*dT*dA*dT*dT*d[5mC]*eA*eT*eT*eG*eA) [compound 301094]
[2]
  % INHIB: 22%

## 301173 (antisense e[5mC]*eA*eT*e[5mC]*eT*d[5mC]*dT*dA*dA*d[5mC]*d[5mC]*dT*dG*dG*dT*eG*eT*e[5mC]*e[5mC]*e[5mC]) [compound 301173]
[2]
  % INHIB: 21%

## 271021 (antisense eG*eA*eG*eT*e[5mC]*dT*d[5mC]*dT*dG*dA*dG*dT*d[5mC]*dA*d[5mC]*e[5mC]*eT*e[5mC]*eA*e[5mC]) [compound 271021]
Averages from two experiments
  % INHIB (inhibition of human apolipoprotein B mRNA levels): 38%

## 332776 (antisense GCCTAATTATTATTATCACC; sugars from the 5' end e5 d10 e5, all phosphorothioate, methylation of C not given here) [compound 332776]
HepG2 cells, 50 nM
  % Change in apolipoprotein B mRNA expression: +10%
HepG2 cells, 150 nM
  % Change in apolipoprotein B mRNA expression: +20%

## 301139 (eT*e[5mC]*eA*eA*eG*dA*dA*dT*dA*dA*dG*d[5mC]*dT*d[5mC]*d[5mC]*eA*eG*eA*eT*e[5mC]; antisense) [compound 301139]
[2]
  % INHIB: 41%

## 308600 (antisense eG*eT*eA*eG*e[5mC]*d[5mC]*dT*d[5mC]*dA*dG*dT*d[5mC]*dT*dG*d[5mC]*eT*eT*e[5mC]*eG*e[5mC]) [compound 308600]
[3]
  % INHIB 50 nm: 72%
[4]
  % INHIB 150 nm: 89%

## 281632 (antisense eT*eG*eA*eT*eA*dG*dT*dG*d[5mC]*dT*d[5mC]*dA*dT*d[5mC]*dA*eA*eG*eA*e[5mC]*eT) [compound 281632]
Averages from two experiments
  % INHIB (inhibition of human apolipoprotein B mRNA levels): 75%

## 270985 (antisense eT*eT*e[5mC]*e[5mC]*eT*d[5mC]*dT*dT*d[5mC]*dG*dG*d[5mC]*d[5mC]*d[5mC]*dT*eG*eG*e[5mC]*eG*e[5mC]) [compound 270985]
Averages from two experiments
  % INHIB (inhibition of human apolipoprotein B mRNA levels): 75%

## 271020 (antisense eT*eT*eG*eA*eA*dT*d[5mC]*d[5mC]*dA*dG*dG*dA*dT*dG*d[5mC]*eA*eG*eT*eA*e[5mC]) [compound 271020]
Averages from two experiments
  % INHIB (inhibition of human apolipoprotein B mRNA levels): 35%

## 301181 (antisense eA*eT*e[5mC]*eT*e[5mC]*dT*d[5mC]*dT*dG*dT*d[5mC]*d[5mC]*dT*d[5mC]*dA*eT*e[5mC]*eT*eT*e[5mC]) [compound 301181]
[2]
  % INHIB: 28%

## 301132 (eT*e[5mC]*eA*e[5mC]*eA*d[5mC]*dT*dT*dA*d[5mC]*d[5mC]*dT*d[5mC]*dG*dA*eT*eG*eA*eG*eG; antisense) [compound 301132]
[2]
  % INHIB: 29%

## 271019 (antisense eT*eA*eT*eG*eT*d[5mC]*dT*dG*d[5mC]*dA*dG*dT*dT*dG*dA*eG*eA*eT*eA*eG) [compound 271019]
Averages from two experiments
  % INHIB (inhibition of human apolipoprotein B mRNA levels): 15%

## 301023 (eT*eA*eG*eA*eG*dG*dA*dT*dG*dA*dT*dA*dG*dT*dA*eA*eG*eT*eT*e[5mC]; antisense) [compound 301023]
Averages from two experiments
  % INHIB (inhibition of human apolipoprotein B mRNA levels): 69%

## 301135 (eA*eA*eA*eT*eA*d[5mC]*dA*d[5mC]*dA*d[5mC]*d[5mC]*dT*dG*d[5mC]*dT*e[5mC]*eA*eT*eG*eT; antisense) [compound 301135]
[2]
  % INHIB: 20%

## 147788 (antisense eT*eT*eT*e[5mC]*eT*dG*dT*dT*dG*d[5mC]*d[5mC]*dA*d[5mC]*dA*dT*eT*eG*e[5mC]*e[5mC]*e[5mC]) [compound 147788]
[1]
  % INHIB: 95%
HepG2 cells, 50 nM
  Percent Inhibition 50 nM: 54%
HepG2 cells, 150 nM
  Percent Inhibition 150 nM: 63%
HepG2 cells
  Percent Inhibition 250 nM: 72%

## 271039 (eT*eA*eG*eA*eG*dG*d[5mC]*dT*dA*dA*d[5mC]*dG*dT*dA*d[5mC]*e[5mC]*eA*eT*e[5mC]*eT; antisense) [compound 271039]
Averages from two experiments
  % INHIB (inhibition of human apolipoprotein B mRNA levels): 4%

## 301169 (antisense eA*e[5mC]*e[5mC]*eT*e[5mC]*d[5mC]*d[5mC]*dA*dG*dA*dA*dG*d[5mC]*d[5mC]*dT*eT*e[5mC]*e[5mC]*eA*eT) [compound 301169]
[2]
  % INHIB: 22%

## 281592 (eG*e[5mC]*eT*eG*eA*dT*d[5mC]*dA*dG*dA*dG*dT*dT*dG*dA*e[5mC]*eA*eA*eG*eG; antisense) [compound 281592]
Averages from two experiments
  % INHIB (inhibition of human apolipoprotein B mRNA levels): 56%

## 301149 (eA*eG*e[5mC]*eA*eT*dA*dT*dT*dT*dT*dG*dA*dT*dG*dA*eG*e[5mC]*eT*eG*eA; antisense) [compound 301149]
[2]
  % INHIB: 44%

## 281621 (antisense e[5mC]*eA*eG*eT*eG*d[5mC]*d[5mC]*dT*dA*dA*dG*dA*dT*dG*dT*e[5mC]*eA*eG*e[5mC]*eA) [compound 281621]
Averages from two experiments
  % INHIB (inhibition of human apolipoprotein B mRNA levels): 53%

## 301214 (antisense eT*eT*eT*e[5mC]*eT*d[5mC]*dT*dT*dT*dA*dT*d[5mC]*dA*d[5mC]*dA*eT*eG*e[5mC]*e[5mC]*e[5mC]) [compound 301214]
[2]
  % INHIB: 29%

## 271049 (eG*eT*e[5mC]*e[5mC]*eA*dG*d[5mC]*d[5mC]*dA*dA*d[5mC]*dT*dA*dT*dA*e[5mC]*eT*eT*eG*eG; antisense) [compound 271049]
Averages from two experiments
  % INHIB (inhibition of human apolipoprotein B mRNA levels): 54%
